Results taken from ChEMBL document CHEMBL1799994, “Synthesis and docking studies on styryl chromones exhibiting cytotoxicity in human breast cancer cell line” (Bioorg Med Chem Lett, 2010).

Experiments:
MCF7 [1] = test: Cytotoxicity against human MCF7 cells expressing estrogen receptor after 24 hrs by MTT assay; assay type: functional, cell-based
MCF7 [2] = test: Antiproliferative activity against human MCF7 cells expressing estrogen receptor after 24 hrs by MTT assay; assay type: functional, cell-based

CC(=O)OC1=C(/C=C/c2ccccc2)Oc2ccccc2C1=C(C#N)C#N
Activity (MCF7 [1]): Dose-dependent effect
Activity (MCF7 [2]): Dose-dependent effect
